Measurements: patent US20100298141A1, “SUBSTITUTED PYRIDINE N-OXIDE HERBICIDES” (E. I. DU PONT DE NEMOURS AND COMPANY, priority 2007, published 2010)

What was measured:
[1] = system: wheat; test: Test A pre-/postemergence greenhouse test; assay type: in vivo, Triticum aestivum; details: for Wheat plant response rating: 0 to 100 scale
Procedure, shortened: (§1)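 Seeds sown in a loam soil–sand blend got a preemergence directed soil spray of compound in a non-phytotoxic solvent mixture containing surfactant. Postemergence sprays of the same formulation went at the same time onto plants 2–10 cm tall at the one- to two-leaf stage. Injury was scored visually against untreated controls after about ten days in the greenhouse.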

[2] = system: Italian ryegrass; test: Test C pre-/postemergence test; assay type: in vivo, Lolium multiflorum; details: Preemergence
Procedure, shortened: (§2)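 Compounds in a non-phytotoxic solvent with surfactant applied preemergence to seeded pots and, at the same time, postemergence to plants 2–18 cm tall (1- to 4-leaf stage). Paddy tests: pots flooded to 3 cm, compound applied into the water, depth held throughout.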

[3] = system: crabgrass; test: Test A pre-/postemergence greenhouse test; assay type: in vivo, Digitaria sanguinalis; details: for Crabgrass, Large plant response rating: 0 to 100 scale
Procedure, shortened: as §1

[4] = system: johnsongrass; test: Test C pre-/postemergence test; assay type: in vivo, Sorghum halepense; details: Preemergence
Procedure, shortened: as §2

[5] = system: barnyardgrass; test: Test A pre-/postemergence greenhouse test; assay type: in vivo, Echinochloa crus-galli; details: for Barnyardgrass plant response rating: 0 to 100 scale
Procedure, shortened: as §1

[6] = system: umbrella sedge; test: Test C flooded paddy test; assay type: in vivo, Cyperus difformis; details: Flood
Procedure, shortened: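 Pots were flooded to 3 cm above the soil surface at treatment, compound applied directly to the paddy water, and that depth held throughout. Plants were kept in a greenhouse for 13 to 15 days, then visually rated against untreated controls.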

[7] = system: corn; test: Test A pre-/postemergence greenhouse test; assay type: in vivo, Zea mays; details: for Corn plant response rating: 0 to 100 scale
Procedure, shortened: as §1

[8] = system: Goosegrass; test: Test C pre-/postemergence test; assay type: in vivo, Eleusin indica; details: Preemergence
Procedure, shortened: as §2

[9] = system: crabgrass; test: Test C pre-/postemergence test; assay type: in vivo, Digitaria sanguinalis; details: Preemergence
Procedure, shortened: as §2

[10] = system: velvetleaf; test: Test C pre-/postemergence test; assay type: in vivo, Abutilon theophrasti; details: Preemergence
Procedure, shortened: as §2

[11] = system: corn; test: Test C pre-/postemergence test; assay type: in vivo, Zea mays
Procedure, shortened: as §2

[12] = system: common (oilseed) sunflower; test: Test C pre-/postemergence test; assay type: in vivo, Helianthus annuus; details: Preemergence
Procedure, shortened: as §2

[13] = system: giant foxtail; test: Test C pre-/postemergence test; assay type: in vivo, Setaria faberii; details: Preemergence
Procedure, shortened: as §2

[14] = system: pigweed; test: Test C pre-/postemergence test; assay type: in vivo, Amaranthus retroflexus; details: Preemergence
Procedure, shortened: as §2

[15] = system: Surinam grass; test: Test C pre-/postemergence test; assay type: in vivo, Brachiaria decumbens; details: Preemergence
Procedure, shortened: as §2

[16] = system: eastern black nightshade; test: Test C pre-/postemergence test; assay type: in vivo, Solanum ptycanthum; details: Preemergence
Text: Seeds of plant species selected from blackgrass (Alopecurus myosuroides), downy brome (Bromus tectorum), green foxtail (Setaria viridis), Italian ryegrass (Lolium multiflorum), wheat (Triticum aestivum), wild oat (Avena fatua), catchweed bedstraw (Galium aparine), Russian thistle (Salsola kali), […] (Cynodon dactylon), Surinam grass (Brachiaria decumbens), cocklebur (Xanthium strumarium), corn (Zea mays), crabgrass (Digitaria sanguinalis), woolly cupgrass (Eriochloa villosa), giant foxtail (Setaria faberii), Goosegrass (Eleusin indica), johnsongrass (Sorghum halepense), kochia (Kochia scoparia), lambsquarters (Chenopodium album), morningglory (Ipomoea coccinea), eastern black nightshade (Solanum ptycanthum), yellow nutsedge (Cyperus esculentus), pigweed (Amaranthus retroflexus), common ragweed (Ambrosia elation), soybean (Glycine max), common (oilseed) sunflower (Helianthus annuus), and velvetleaf (Abutilon theophrasti) were planted and treated preemergence with test chemicals formulated in a non-phytotoxic solvent mixture which included a surfactant. At the same time, plants selected from these crop and weed species and also winter barley (Hordeum vulgare), canarygrass (Phalaris minor), and chickweed (Stellaria media) were treated with postemergence applications of some of the test chemicals formulated in the same manner. Plants ranged in height from 2 to 18 cm (1- to 4-leaf stage) for postemergence treatments. […] At time of treatment, test pots were flooded to 3 cm above the soil surface, treated by application of test compounds directly to the paddy water, and then maintained at that water depth for the duration of the test. […] A dash (-) response means no test result.

[17] = Postemergence, 125 g ai/ha, 0 is no effect, 100 is complete control
[18] = Postemergence, 500 g ai/ha, 0 is no effect, 100 is complete control
[19] = Preemergence, 125 g ai/ha, 0 no effect, 100 complete control
[20] = Preemergence, 500 g ai/ha, 0 to 100 scale where 0 is no effect and 100 is complete control
[21] = 31 g ai/ha, scale 0 to 100 (0 no effect, 100 complete control)

Cn1nc(C(F)(F)F)c(C[S+]([O-])c2cc(C(F)(F)F)cc[n+]2[O-])c1Cl (racemic) [Compound 34]
40: Barnyardgrass plant response rating [5, 17] | Plant response rating, Velvetleaf [10, 21]
70: Crabgrass, Large plant response rating [3, 18] | Plant response rating, Crabgrass, Large [3, 20] | Velvetleaf plant response rating ([10]; 62 g ai/ha, scale 0 to 100)
20: Corn plant response rating [7, 18] | Plant response rating (0 to 100), Corn ([11]; Preemergence, 250 g ai/ha) | Foxtail, Giant plant response rating ([13]; 62 g ai/ha, scale 0 to 100) | Plant response rating, Foxtail, Giant [13, 21]
5: Corn plant response rating ([11]; preemergence, 125 g ai/ha, scale 0 (no effect) to 100 (complete control))
80: Barnyardgrass plant response rating [5, 19]
98: Goosegrass plant response rating ([8]; 62 g ai/ha, scale 0 to 100) | Plant response rating, Goosegrass [8, 21] | Plant response rating, Crabgrass, Large [9, 21]
90: Plant response rating, Sedge, Umbrella ([6]; 250 g ai/ha, scale 0 to 100, 0 no effect, 100 complete control, 13 to 15 days)
100: Plant response rating (0 to 100), Johnsongrass ([4]; 250 g ai/ha) | Plant response rating, Barnyardgrass [5, 20] | Plant response rating (0 to 100), Goosegrass ([8]; 250 g ai/ha) | Crabgrass, Large plant response rating ([9]; 62 g ai/ha, scale 0 to 100) | Plant response rating (0 to 100), Crabgrass, Large ([9]; 250 g ai/ha) | Pigweed plant response rating ([14]; 62 g ai/ha, scale 0 to 100) | Plant response rating, Pigweed [14, 21] | Nightshade plant response rating ([16]; 62 g ai/ha, scale 0 to 100)
85: Johnsongrass plant response rating ([4]; 62 g ai/ha, scale 0 to 100) | Plant response rating, Johnsongrass [4, 21] | Plant response rating, Sedge, Umbrella ([6]; 62 g ai/ha, scale 0 to 100, 0 no effect, 100 complete control, 13 to 15 days) | Plant response rating, Sedge, Umbrella ([6]; 125 g ai/ha, scale 0 to 100, 0 no effect, 100 complete control, 13 to 15 days) | Plant response rating, Nightshade [16, 21]
0: Wheat plant response rating [1, 17] | Wheat plant response rating [1, 18] | Ryegrass, Italian plant response rating ([2]; 62 g ai/ha, scale 0 to 100) | Plant response rating, Ryegrass, Italian [2, 21] | Plant response rating, Sedge, Umbrella [6, 21] | Corn plant response rating [7, 17] | Corn plant response rating [7, 19] | Plant response rating, Corn [7, 20] | Corn plant response rating ([11]; 62 g ai/ha, Preemergence, scale 0 to 100) | Plant response rating, Corn ([11]; Preemergence, 31 g ai/ha, scale 0 to 100 (0 no effect, 100 complete control)) | Sunflower plant response rating ([12]; 62 g ai/ha, scale 0 to 100) | Plant response rating, Sunflower [12, 21] | Surinam Grass plant response rating ([15]; 62 g ai/ha, scale 0 to 100) | Plant response rating, Surinam Grass [15, 21]
50: Plant response rating, Wheat [1, 20] | Plant response rating (0 to 100), Foxtail, Giant ([13]; 250 g ai/ha)
10: Crabgrass, Large plant response rating [3, 17]
30: Wheat plant response rating [1, 19]
60: Crabgrass, Large plant response rating [3, 19] | Barnyardgrass plant response rating [5, 18]
